In patent US20160137714A1 (Thrasos Innovation, Inc., priority 2014, published 2016):
Positions of bridges follow the written chain, without caps; N, C: chain ends. Non-standard residues stand in square brackets, D forms with d. Residues, ends and D or L forms follow the SMILES beside them. NMeR = CN[C@@H](CCCNC(=N)N)C(=O)O

Experiment: Ex-vivo plasma stability
Type: in vitro ADME, mouse or rat
Conditions: for remaining at 1 h / remaining at 2 h: fresh plasma 37° C., 1 μM; for remaining at 1 h: 60 min, read-out: Percent remaining 60 min; for remaining at 2 h: 120 min, read-out: Percent remaining 120 min; for stability toward plasma proteolytic cleavage: versus THR-123, rat plasma (FIGS. 3 and 4)
Protocol: Test article is added to fresh mouse or rat plasma at a final in-vial concentration of 1 μM. The peptide is incubated in a water bath at 37° C. over a time course that included the following points (in minutes): 0, 15, 30, 60, 120, 240, and 1440. After the incubation time is completed, a 50 μL aliquot of plasma is removed and proteins are precipitated using a solution containing internal standard (THR-123 at 150 ng/mL) in methanol with 0.5% acetic acid (v/v). The samples are centrifuged at 13,000 RPM for 5 minutes, and a 100 μL aliquot of supernatant is removed and transferred to a 96-well plate containing 200 μL of reconstitution solution (Water/MeOH/Acetic Acid/TFA, 60/40/0.2/0.05, v/v/v/v). A calibration curve and quality control (QC) samples are prepared in parallel in the same manner as the incubation samples. The calibration range for this assay is from 0.02 to 2.0 μM in rat or mouse plasma. The extracted calibrants, QC, and incubation samples are injected onto an AB SCIEX API 2000 LC-MS/MS system. Chromatographic separation is performed using a reversed-phase C18 HPLC column (Ace-3 C18, 30×2.1 mm, 3 μm). The solvent system consists of Milli-Q water, acetonitrile and formic acid. Analyte and internal standard are detected using the multiple reaction monitoring (MRM) scan mode. Calibration curves are generated by using a weighted (1/concentration) quadratic regression analysis of the peak area ratios (analyte/internal standard) versus the nominal concentration of the calibration standards. The concentration of the analyte in the incubation samples is determined by back-calculating the peak area ratios obtained using the quadratic regression.

CC(C)C[C@@H]1NC(=O)[C@H](C(C)C)NC(=O)[C@H](CO)NC(=O)[C@H](CO)NC(=O)[C@H](CO)NC(=O)[C@H](CC(N)=O)NC(=O)[C@H](CC(=O)O)NC(=O)[C@H](Cc2ccc(O)cc2)NC(=O)[C@H](Cc2ccc(O)cc2)NC(=O)[C@@H](N)CSSC[C@@H](C(=O)N[C@@H](CCCCN)C(=O)N[C@@H](CCCNC(=N)N)C(=O)N[C@@H](Cc2ccc(O)cc2)C(=O)N[C@@H](CCCNC(=N)N)C(=O)N[C@@H](CO)C(=O)O)NC1=O [GPR-259, Cys-Tyr-Tyr-Asp-Asn-Ser-Ser-Ser-Val-Leu-Cys-Lys-Arg-Tyr-Arg-Ser] (H-CYYDNSSSVLCKRYRS-OH; disulfide 1-11)
remaining at 1 h: 4%
remaining at 2 h: 2.5%

CC(C)C[C@@H]1NC(=O)[C@H](C(C)C)NC(=O)[C@H](CO)NC(=O)[C@H](CO)NC(=O)[C@H](CO)NC(=O)[C@H](CC(=O)O)NC(=O)[C@H](CC(=O)O)NC(=O)[C@H](Cc2ccc(O)cc2)NC(=O)[C@H](Cc2ccc(O)cc2)NC(=O)[C@@H](N)CSSC[C@@H](C(=O)N[C@@H](CCCCN)C(=O)N[C@@H](CCCCN)C(=O)N[C@@H](Cc2ccc(O)cc2)C(=O)N[C@@H](CCCNC(=N)N)C(=O)N[C@@H](CO)C(=O)O)NC1=O [GPR-267, Cys-Tyr-Tyr-Asp-Asp-Ser-Ser-Ser-Val-Leu-Cys-Lys-Lys-Tyr-Arg-Ser] (H-CYYDDSSSVLCKKYRS-OH; disulfide 1-11)
remaining at 1 h: 1.5%
remaining at 2 h: 0%

CC(C)C[C@@H]1NC(=O)[C@H](C(C)C)NC(=O)[C@H](CO)NC(=O)[C@H](CO)NC(=O)[C@H](CO)NC(=O)[C@H](CC(N)=O)NC(=O)[C@H](CC(=O)O)NC(=O)[C@H](Cc2ccc(O)cc2)NC(=O)[C@H](Cc2ccc(O)cc2)NC(=O)[C@@H](N)CSSC[C@@H](C(=O)N[C@@H](CCCCN)C(=O)N[C@@H](CCCCN)C(=O)N[C@@H](Cc2ccc(O)cc2)C(=O)N[C@@H](CCCNC(=N)N)C(=O)N[C@@H](CO)C(=O)O)NC1=O [GPR-269, Cys-Tyr-Tyr-Asp-Asn-Ser-Ser-Ser-Val-Leu-Cys-Lys-Lys-Tyr-Arg-Ser] (H-CYYDNSSSVLCKKYRS-OH; disulfide 1-11)
remaining at 1 h: 9.9%
remaining at 2 h: 6.8%

CC(C)C[C@@H]1NC(=O)[C@H](C(C)C)NC(=O)[C@H](CO)NC(=O)[C@H](CO)NC(=O)[C@H](CO)NC(=O)[C@H](CC(N)=O)NC(=O)[C@H](CC(=O)O)NC(=O)[C@H](Cc2ccc(O)cc2)NC(=O)[C@H](Cc2ccc(O)cc2)NC(=O)[C@@H](N)CSSC[C@@H](C(=O)N[C@@H](CCCCN)C(=O)N[C@@H](CCCNC(=N)N)C(=O)N[C@H](Cc2ccc(O)cc2)C(=O)N[C@@H](CCCNC(=N)N)C(=O)N[C@@H](CO)C(=O)O)NC1=O [GPR-279, Cys-Tyr-Tyr-Asp-Asn-Ser-Ser-Ser-Val-Leu-Cys-Lys-Arg-D-tyr-Arg-Ser] (H-CYYDNSSSVLCKR[dY]RS-OH; disulfide 1-11)
remaining at 1 h: 89.1%
remaining at 2 h: 77.8%

CC(C)C[C@@H]1NC(=O)[C@H](C(C)C)NC(=O)[C@H](CC(N)=O)NC(=O)[C@H](CO)NC(=O)[C@H](CO)NC(=O)[C@H](CC(=O)O)NC(=O)[C@H](CC(=O)O)NC(=O)[C@H](Cc2ccccc2)NC(=O)[C@H](Cc2ccc(O)cc2)NC(=O)[C@@H](N)CSSC[C@@H](C(=O)N[C@@H](CCCCN)C(=O)N[C@@H](CCCNC(=N)N)C(=O)N[C@@H](Cc2ccc(O)cc2)C(=O)N[C@@H](CCCNC(=N)N)C(=O)N[C@@H](CO)C(=O)O)NC1=O [GPR-293, Cys-Tyr-Phe-Asp-Asp-Ser-Ser-Asn-Val-Leu-Cys-Lys-Arg-Tyr-Arg-Ser] (H-CYFDDSSNVLCKRYRS-OH; disulfide 1-11)
remaining at 1 h: 3.5%
remaining at 2 h: 1.6%

CC(C)C[C@@H]1NC(=O)[C@H](C(C)C)NC(=O)[C@H](CO)NC(=O)[C@H](CO)NC(=O)[C@H](CO)NC(=O)[C@H](CC(=O)O)NC(=O)[C@H](CC(=O)O)NC(=O)[C@H](Cc2ccc(O)cc2)NC(=O)[C@H](Cc2ccc(O)cc2)NC(=O)[C@@H](N)CSSC[C@@H](C(=O)N[C@@H](CCCCN)C(=O)N[C@@H](CCCCN)C(=O)N[C@H](Cc2ccc(O)cc2)C(=O)N[C@@H](CCCNC(=N)N)C(=O)N[C@@H](CO)C(=O)O)NC1=O [GPR-295, Cys-Tyr-Tyr-Asp-Asp-Ser-Ser-Ser-Val-Leu-Cys-Lys-Lys-D-tyr-Arg-Ser] (H-CYYDDSSSVLCKK[dY]RS-OH; disulfide 1-11)
remaining at 1 h: 92.2%
remaining at 2 h: 94.7%

CC(C)C[C@@H]1NC(=O)[C@H](C(C)C)NC(=O)[C@H](CO)NC(=O)[C@H](CO)NC(=O)[C@H](CO)NC(=O)[C@H](CC(N)=O)NC(=O)[C@H](CC(=O)O)NC(=O)[C@H](Cc2ccc(O)cc2)NC(=O)[C@H](Cc2ccc(O)cc2)NC(=O)[C@@H](N)CSSC[C@@H](C(=O)N[C@@H](CCCCN)C(=O)N[C@@H](CCCCN)C(=O)N[C@H](Cc2ccc(O)cc2)C(=O)N[C@@H](CCCNC(=N)N)C(=O)N[C@@H](CO)C(=O)O)NC1=O [GPR-296, Cys-Tyr-Tyr-Asp-Asn-Ser-Ser-Ser-Val-Leu-Cys-Lys-Lys-D-tyr-Arg-Ser] (H-CYYDNSSSVLCKK[dY]RS-OH; disulfide 1-11)
remaining at 1 h: 97.5%
remaining at 2 h: 86.4%

CC(C)C[C@@H]1NC(=O)[C@H](C(C)C)NC(=O)[C@H](CC(N)=O)NC(=O)[C@H](CO)NC(=O)[C@H](CO)NC(=O)[C@H](CC(=O)O)NC(=O)[C@H](CC(=O)O)NC(=O)[C@H](Cc2ccccc2)NC(=O)[C@H](Cc2ccc(O)cc2)NC(=O)[C@@H](N)CSSC[C@@H](C(=O)N[C@@H](CCCCN)C(=O)N[C@H](CCCCN)C(=O)N[C@@H](Cc2ccc(O)cc2)C(=O)N[C@@H](CCCNC(=N)N)C(=O)N[C@@H](CO)C(=O)O)NC1=O [GPR-388, Cys-Tyr-Phe-Asp-Asp-Ser-Ser-Asn-Val-Leu-Cys-Lys-(D)lys-Tyr-Arg-Ser] (H-CYFDDSSNVLCK[dK]YRS-OH; disulfide 1-11)
remaining at 1 h: 77.6%
remaining at 2 h: 64.2%
stability toward plasma proteolytic cleavage: enhanced

CC(C)C[C@@H]1NC(=O)[C@H](C(C)C)NC(=O)[C@H](CC(N)=O)NC(=O)[C@H](CO)NC(=O)[C@H](CO)NC(=O)[C@H](CC(=O)O)NC(=O)[C@H](CC(=O)O)NC(=O)[C@H](Cc2ccccc2)NC(=O)[C@H](Cc2ccc(O)cc2)NC(=O)[C@@H](N)CSSC[C@@H](C(=O)N[C@@H](CCCCN)C(=O)N[C@@H](CCCCN)C(=O)N[C@@H](Cc2ccc(O)cc2)C(=O)N[C@H](CCCNC(=N)N)C(=O)N[C@@H](CO)C(=O)O)NC1=O [GPR-389, Cys-Tyr-Phe-Asp-Asp-Ser-Ser-Asn-Val-Leu-Cys-Lys-Lys-Tyr-D-arg-Ser] (H-CYFDDSSNVLCKKY[dR]S-OH; disulfide 1-11)
remaining at 1 h: 58.5%
remaining at 2 h: 46.1%
stability toward plasma proteolytic cleavage: enhanced

CC(C)C[C@@H]1NC(=O)[C@H](C(C)C)NC(=O)[C@H](CC(N)=O)NC(=O)[C@H](CO)NC(=O)[C@H](CO)NC(=O)[C@H](CC(=O)O)NC(=O)[C@H](CC(=O)O)NC(=O)[C@H](Cc2ccccc2)NC(=O)[C@H](Cc2ccc(O)cc2)NC(=O)[C@@H](N)CSSC[C@@H](C(=O)N[C@@H](CCCCN)C(=O)N[C@@H](CCCCN)C(=O)N[C@@H](Cc2ccc(O)cc2)C(=O)N(C)[C@@H](CCCNC(=N)N)C(=O)N[C@@H](CO)C(=O)O)NC1=O [GPR-396, Cys-Tyr-Phe-Asp-Asp-Ser-Ser-Asn-Val-Leu-Cys-Lys-Lys-Tyr-(Na-Me)Arg-Ser] (H-CYFDDSSNVLCKKY[NMeR]S-OH; disulfide 1-11)
remaining at 1 h: 91%
remaining at 2 h: 82.4%
stability toward plasma proteolytic cleavage: enhanced

CC(C)C[C@@H]1NC(=O)[C@H](C(C)C)NC(=O)[C@H](CC(N)=O)NC(=O)[C@H](CO)NC(=O)[C@H](CO)NC(=O)[C@H](CC(=O)O)NC(=O)[C@H](CC(=O)O)NC(=O)[C@H](Cc2ccccc2)NC(=O)[C@H](Cc2ccc(O)cc2)NC(=O)[C@@H](N)CSSC[C@@H](C(=O)N[C@@H](CCCCN)C(=O)N[C@@H](CCCNC(=N)N)C(=O)N[C@H](Cc2ccc(O)cc2)C(=O)N[C@@H](CCCNC(=N)N)C(=O)N[C@@H](CO)C(=O)O)NC1=O [GPR-397, Cys-Tyr-Phe-Asp-Asp-Ser-Ser-Asn-Val-Leu-Cys-Lys-Arg-D-tyr-Arg-Ser] (H-CYFDDSSNVLCKR[dY]RS-OH; disulfide 1-11)
remaining at 1 h: 92%
remaining at 2 h: 89.3%

CC(C)C[C@@H]1NC(=O)[C@H](C(C)C)NC(=O)[C@H](CO)NC(=O)[C@H](CO)NC(=O)[C@H](CO)NC(=O)[C@H](CC(N)=O)NC(=O)[C@H](CC(=O)O)NC(=O)[C@H](Cc2ccc(O)cc2)NC(=O)[C@H](Cc2ccc(O)cc2)NC(=O)[C@@H](N)CSSC[C@@H](C(=O)N[C@@H](CCCCN)C(=O)N[C@@H](CCCNC(=N)N)C(=O)N[C@@H](Cc2ccc(O)cc2)C(=O)N(C)[C@@H](CCCNC(=N)N)C(=O)N[C@@H](CO)C(=O)O)NC1=O [GPR-398, Cys-Tyr-Tyr-Asp-Asn-Ser-Ser-Ser-Val-Leu-Cys-Lys-Arg-Tyr-(Nα-Me)Arg-Ser] (H-CYYDNSSSVLCKRY[NMeR]S-OH; disulfide 1-11)
remaining at 1 h: 79.2%
remaining at 2 h: 68.1%
